Test results reported in patent US20100048727A1, “PERFLUOROKETONE COMPOUNDS AND USES THEREOF” (priority 2007, published 2010).
Entries after “also recorded” stand apart in the source; their conditions may differ.

Columns and labels:
EAE-induced SJL/J mice = test: Clinical course of EAE in SJL/J mice treated with fluoroketone compounds; assay type: in vivo
[1] = system: spinal cord contusion injury (SCI) mice; test: Spinal cord contusion injury in mice: BMS locomotor recovery and histology; assay type: in vivo
Method: Spinal cord contusion and drug administration. All surgical procedures were approved by the McGill University Animal Care Committee and followed the guidelines of the Canadian Council on Animal Care. Adult (8-10 weeks old) female BALB/c (Charles River Canada), cPLA2 IVA^−/− and wild type littermates mice, were anesthetized with ketamine:xylazine:acepromazine (50:5:1 mg/kg). After performing a laminectomy at the 11th thoracic vertebrae, the exposed spinal cord was contused using the Infinite Horizons Impactor™ device (Precision Scientific Instrumentation, Lexington, Ky.). Moderate injuries were made using a force of 50 kDynes, and only animals that had tissue displacement ranged between 400-600 μm were used (Ghasemblou et al. (2005). Exp Neurol. 196(1): 9-17).
PLA2 inhibitor treatment. Mice were given daily intraperitoneal injections of 2 mM fluoroketone (iPLA2 inhibitor; FKGK11) in 200 μl (6.85 mg/kg), starting 1 h after contusion and for 14 days. The control group that also had SCI were treated daily with vehicle.
Functional assessment. Locomotor recovery was evaluated in an open-field test using the Basso Mouse Scale (BMS) (Basso D. M. et al., (2006). J Neurotrauma. 23(5): 635-59). The BMS analysis of hindlimb movements and coordination was carried out by two independent assessors and the consensus score taken. The final score is presented as mean±SEM.
Histology. Mice were perfused with 4% paraformaldehyde in 0.1M phosphate buffer (PB) at 1, 3, 7, 14 and 28 days post-lesion. 5 mm length of the spinal cord containing the lesion site was removed, cryoprotected with 30% sucrose in 0.1M PB, and cut in serial sections (16 μm thick). For double immunoflorescence, sections were incubated with antibodies against iPLA2 VIA (Cayman Chemical) combined with antibodies against Mac-1 (for macrophages/microglia, Serotec), GFAP (for astrocytes, Zymed Labs), CC1 (for oligodendrocytes, Calbiochem), NeuN (for neurons, 1:500, Chemicon) and SMI312 (for axons, Covance). Immunfluorescence labeling for 5-hydroxytryptamine (5-HT) (Sigma, Aldreich) was also performed to assess innervation of serotonergic axons caudal to the lesion. In addition, one series of serial sections of the spinal cord were stained with Luxol fast blue (LFB) histochemistry, which stains myelin, and another series stained with cresyl violet histochemistry to quantify neuronal loss.
Quantification of histological results. Histological quantification was performed from spinal cord sections harvested at 28 days post-lesion. Tissue sections were viewed with an Axioskop™ 2 Plus microscope (Zeiss) and images captured using a Qlmaging Retiga™ 1300 camera, and quantification done using BioQuant™ Nova Prime image analysis system (BioQuant Image Analysis Corp.). Tissue and myelin sparing was calculated by delineating the GFAP and LFB stained sections. Neuronal survival was assessed by counting the neuron profiles in the ventral horn of the spinal cord in tissue sections stained with cresyl violet. Assessment of serotonergic innervation was performed by calculating the area occupied by serotoninergic axons in the lateral funiculi and ventral horns of spinal cord sections taken at a distance of 1000 μm caudal to the lesion site.
Statistical analyses (spinal cord injury experiments, Examples 19-20). Data are shown as mean±s.e.m. RT-PCR and Western blot analyses were done using one-way ANOVA with post-hoc Dunnett's test. Statistical analyses of the functional and histological assessments were performed using two-way repeated measures ANOVA with post-hoc Tukey's test for multiple comparisons. Differences were considered significant at p<0.05.

GVIA iPLA2 = target: T1, GVIA iPLA2 (Homo sapiens, UniProt O60733); test: standard GVIA iPLA2 activity assay (DPPC/Triton X-100 mixed micelles); assay type: biochemical; details: 0.091 mole fraction; mean and standard error, n = 3
T1 sequence (O60733 1-806): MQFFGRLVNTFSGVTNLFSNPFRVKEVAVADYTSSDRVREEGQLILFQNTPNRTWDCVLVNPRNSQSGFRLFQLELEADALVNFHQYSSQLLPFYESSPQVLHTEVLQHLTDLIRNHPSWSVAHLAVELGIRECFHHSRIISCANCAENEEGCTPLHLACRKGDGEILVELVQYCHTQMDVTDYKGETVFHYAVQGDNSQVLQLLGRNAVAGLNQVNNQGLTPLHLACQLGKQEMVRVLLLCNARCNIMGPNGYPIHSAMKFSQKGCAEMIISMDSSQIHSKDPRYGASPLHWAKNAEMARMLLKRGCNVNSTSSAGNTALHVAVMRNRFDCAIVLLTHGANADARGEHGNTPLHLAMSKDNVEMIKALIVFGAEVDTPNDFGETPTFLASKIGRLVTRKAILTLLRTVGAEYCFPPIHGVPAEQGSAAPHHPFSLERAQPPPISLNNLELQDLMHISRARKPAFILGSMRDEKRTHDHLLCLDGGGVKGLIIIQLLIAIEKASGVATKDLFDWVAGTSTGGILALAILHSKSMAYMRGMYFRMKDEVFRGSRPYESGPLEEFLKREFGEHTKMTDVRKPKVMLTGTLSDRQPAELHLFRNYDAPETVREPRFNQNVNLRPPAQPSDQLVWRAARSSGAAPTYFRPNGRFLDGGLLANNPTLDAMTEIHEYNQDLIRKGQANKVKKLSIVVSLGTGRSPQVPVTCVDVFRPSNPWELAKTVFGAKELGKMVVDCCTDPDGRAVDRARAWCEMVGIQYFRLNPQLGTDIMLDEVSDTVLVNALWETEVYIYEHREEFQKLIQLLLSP
Method: Inhibition of phospholipase A2 by perfluoroketone compounds. […] (2002) J. Med. Chem. 45: 2891-2893; Kokotos, G. et al. (2004). J. Med. Chem. 47: 3615-3628). The standard GVIA iPLA2 activity assay utilizes DPPC/Triton™ X-100 mixed micelles at a ratio of 1:4 as previously described (Stephens D. et al. (2006). J. Med. Chem., 49: 2821-2828). GV sPLA2 activity was measured in an assay similar to the assays for GIVA cPLA2 and GVIA iPLA2.

## O=C(CCCCc1ccccc1)C(F)(F)C(F)(F)F [FKGK11, 1,1,1,2,2-Pentafluoro-7-phenyl-3-heptanone]
EAE-induced SJL/J mice; delayed treatment from day 11, 5-point scale
  clinical disability score between days 22-27: 0.8
EAE-induced SJL/J mice; delayed treatment from day 11, on day 17, 5-point scale
  maximal clinical disability score: 1.4
EAE-induced SJL/J mice; delayed treatment from day 11, on day 30, 5-point scale
  clinical disability score at second peak: 1.2
EAE-induced SJL/J mice; delayed treatment from day 11 after immunization, 2 weeks, i.p., vs vehicle
  severity and progression of the disease (EAE): marked reduction
EAE-induced SJL/J mice; treatment before onset of symptoms, daily for 3 weeks from day 6, course until day 40, 5-point scale
  maximum clinical disability score: 1.0 grade
EAE-induced SJL/J mice; treatment before onset of symptoms, daily for 3 weeks from day 6, vs vehicle
  clinical severity and progression of EAE: marked reduction
[1]; 6.85 mg/kg i.p. daily for 14 days from 1 h after contusion, vs vehicle
  main BMS scores (locomotor recovery): did not reach statistical significance; also recorded: No significant differences
[1]; 6.85 mg/kg i.p. daily for 14 days, 28 days after SCI, vs vehicle
  BMS subscores (fine locomotor coordination and control): significant improvement; also recorded: significantly better BMS subscores
[1]; 1000 μm caudal to the epicenter, 28 days after SCI
  sparing of serotonergic fibers in the lateral funiculi: significantly greater sparing of serotonergic fibers
[1]; 1000 μm caudal to the epicenter, 28 days after SCI, compared to vehicle-treated SCI controls
  increase in serotonergic (5-HT) fibers in the lateral white matter: ~40%
[1]; 28 days after SCI, vs vehicle
  neuronal survival in the ventral horn: little if any effect; also recorded: No significant differences
[1]; epicenter and adjacent areas, 28 days after SCI, vs vehicle
  tissue sparing: significantly greater tissue sparing; also recorded: greater amount of tissue sparing
[1]; regions near the epicenter, 28 days after SCI, vs vehicle
  myelin sparing (Luxol fast blue): significant enhancement of myelin sparing; also recorded: greater sparing of myelin
GVIA iPLA2
  Average percent inhibition GVIA iPLA2: 98 ± 16%
